Results: US8957108B2, “Use of 5,6-dimethylxanthenone-4-acetic acid as an antiviral agent” (University of Maryland, Baltimore, priority 2006, dated 2015)

Tested on: C57BL/6J macrophages
[1] = DMXAA 3 h vs unstimulated wild-type cells
[2] = ratio of fold change, wild-type vs IFN-β-deficient cells

## Cc1ccc2c(=O)c3cccc(CC(=O)O)c3oc2c1C [DMXAA, 5,6-dimethylxanthenone-4-acetic acid]
  CYP1A2 Fold Change: BL/6: −7.0 fold
  CYP1A2 WT/KO: 1.8
  CYP1B1 Fold Change: BL/6: −44.3 fold
  CYP1B1 WT/KO: 7.5
3 h, vs medium-treated cells
  number of genes down-regulated ≧3-fold: 26 genes
  number of genes up-regulated ≧3-fold: 110 genes
[1]
  2310043N10RIK Fold Change: BL/6: −7.1 fold
  5830484A20RIK Fold Change: BL/6: 5.7 fold
  ABCB1 Fold Change: BL/6: 7.9 fold
  ABL1 Fold Change: BL/6: −8.4 fold
  ABLIM1 Fold Change: BL/6: −9.7 fold
  ACVR1B Fold Change: BL/6: −4.5 fold
  ADRB2 Fold Change: BL/6: −3.2 fold
  AFTIPHILIN Fold Change: BL/6: 3.5 fold
  AKAP12 Fold Change: BL/6: 3.2 fold
  AMPD3 Fold Change: BL/6: −3.9 fold
  AP2A2 Fold Change: BL/6: −10.1 fold
  APBB1IP Fold Change: BL/6: −3.9 fold
  APOBEC3F Fold Change: BL/6: 3.5 fold
  ARHGEF3 Fold Change: BL/6: 4.2 fold
  ARID3A Fold Change: BL/6: −4.1 fold
  ARL4C Fold Change: BL/6: 5.7 fold
  ASF1A Fold Change: BL/6: 3.7 fold
  ATRX Fold Change: BL/6: −4.2 fold
  B3GAT3 Fold Change: BL/6: −9.0 fold
  BACE1 Fold Change: BL/6: −11.5 fold
  BAMBI Fold Change: BL/6: 4.0 fold
  BCL2 Fold Change: BL/6: −7.5 fold
  BCL2L1 Fold Change: BL/6: −14.0 fold
  BHLHB2 Fold Change: BL/6: −3.8 fold
  BID Fold Change: BL/6: 3.2 fold
  C8ORF4 Fold Change: BL/6: −35.4 fold
  C9ORF26 Fold Change: BL/6: 9.1 fold
  CCL2 Fold Change: BL/6: 125.6 fold
  CCL3 Fold Change: BL/6: 5.6 fold
  CCL4 Fold Change: BL/6: 15.1 fold
  CCL5 Fold Change: BL/6: 5.3 fold
  CCL7 Fold Change: BL/6: 9.6 fold
  CCL13 Fold Change: BL/6: 16.8 fold
  CCND2 Fold Change: BL/6: 6.4 fold
  CCNE1 Fold Change: BL/6: 3.2 fold
  CCNF Fold Change: BL/6: −10.6 fold
  CCRN4L Fold Change: BL/6: 5.7 fold
  CD37 Fold Change: BL/6: −5.2 fold
  CD40 Fold Change: BL/6: 10.3 fold
  CD86 Fold Change: BL/6: 11.1 fold
  CD274 Fold Change: BL/6: 6.0 fold
  CDC6 Fold Change: BL/6: 3.8 fold
  CDC7 Fold Change: BL/6: −3.4 fold
  CDC37L1 Fold Change: BL/6: −3.8 fold
  CDKN1A Fold Change: BL/6: 3.1 fold
  CEBPB Fold Change: BL/6: −3.3 fold
  CITED2 Fold Change: BL/6: 6.8 fold
  CLCA1 Fold Change: BL/6: −4.8 fold
  CNR2 Fold Change: BL/6: −9.1 fold
  CREBBP Fold Change: BL/6: −4.5 fold
  CXCL10 Fold Change: BL/6: 69.1 fold
  DAXX Fold Change: BL/6: 7.9 fold
  DSCR1 Fold Change: BL/6: 3.4 fold
  FGD6 Fold Change: BL/6: 3.0 fold
  FGL2 Fold Change: BL/6: 10.6 fold
  GBP2 Fold Change: BL/6: 4.8 fold
  GBP4 Fold Change: BL/6: 7.5 fold
  GBP6 Fold Change: BL/6: 10.8 fold
  GYPC Fold Change: BL/6: 5.9 fold
  IFI16 Fold Change: BL/6: 4.3 fold
  IFI35 Fold Change: BL/6: 3.6 fold
  IFI203 Fold Change: BL/6: 21.9 fold
  IFI205 Fold Change: BL/6: 6.4 fold
  IFIH1 Fold Change: BL/6: 10.1 fold
  IFIT1 Fold Change: BL/6: 33.5 fold
  IFIT2 Fold Change: BL/6: 27.1 fold
  IFIT3 Fold Change: BL/6: 32.2 fold
  IFNA5 Fold Change: BL/6: 32.4 fold
  IFNA6 Fold Change: BL/6: 77.7 fold
  IFNB1 Fold Change: BL/6: 194.1 fold
  IFNG Fold Change: BL/6: 46.5 fold
  IGTP Fold Change: BL/6: 13.7 fold
  IIGP1 Fold Change: BL/6: 21.9 fold
  IL6 Fold Change: BL/6: 564.6 fold
  IL12B Fold Change: BL/6: 4.4 fold
  IL15 Fold Change: BL/6: 7.2 fold
  IL15RA Fold Change: BL/6: 14.9 fold
  IRF1 Fold Change: BL/6: 6.9 fold
  IRF2 Fold Change: BL/6: 4.1 fold
  IRGM Fold Change: BL/6: 6.6 fold
  ISG20 Fold Change: BL/6: 20.9 fold
  KATNA1 Fold Change: BL/6: 3.2 fold
  LGP2 Fold Change: BL/6: 6.4 fold
  LHX2 Fold Change: BL/6: 92.1 fold
  LOC129607 Fold Change: BL/6: 58.9 fold
  MAFK Fold Change: BL/6: 4.7 fold
  MARCH5 Fold Change: BL/6: 4.7 fold
  MOV10 Fold Change: BL/6: 4.2 fold
  MX1 Fold Change: BL/6: 191.4 fold
  MX2 Fold Change: BL/6: 85.3 fold
  NMI Fold Change: BL/6: 4.5 fold
  NP Fold Change: BL/6: 4.1 fold
  NT5C3 Fold Change: BL/6: 6.4 fold
  OAS1B Fold Change: BL/6: 12.7 fold
  OASL Fold Change: BL/6: 35.6 fold
  P4HA1 Fold Change: BL/6: 4.3 fold
  P8 Fold Change: BL/6: 3.7 fold
  PARP9 Fold Change: BL/6: 4.0 fold
  PELI1 Fold Change: BL/6: 5.9 fold
  PGF Fold Change: BL/6: 25.3 fold
  PLAU Fold Change: BL/6: 3.9 fold
  PPP1R15A Fold Change: BL/6: 5.3 fold
  PTX3 Fold Change: BL/6: 5.3 fold
  PVRL2 Fold Change: BL/6: 6.4 fold
  PVRL4 Fold Change: BL/6: 9.0 fold
  REL Fold Change: BL/6: 3.1 fold
  RGC32 Fold Change: BL/6: 8.7 fold
  RIPK2 Fold Change: BL/6: 3.2 fold
  RSAD2 Fold Change: BL/6: 15.5 fold
  SAP30 Fold Change: BL/6: 3.9 fold
  SAV1 Fold Change: BL/6: 3.2 fold
  SDC4 Fold Change: BL/6: 3.9 fold
  SECTM1 Fold Change: BL/6: 17.7 fold
  SLC7A2 Fold Change: BL/6: 3.6 fold
  SOAT1 Fold Change: BL/6: 3.6 fold
  SOCS1 Fold Change: BL/6: 57.5 fold
  STAT2 Fold Change: BL/6: 3.9 fold
  TGTP Fold Change: BL/6: 60.2 fold
  TLK2 Fold Change: BL/6: 4.2 fold
  TLR3 Fold Change: BL/6: 8.8 fold
  TMOD3 Fold Change: BL/6: 3.4 fold
  TNF Fold Change: BL/6: 6.9 fold
  TNFRSF11B Fold Change: BL/6: 90.5 fold
  TNFSF9 Fold Change: BL/6: 5.1 fold
  TOR1AIP1 Fold Change: BL/6: 3.1 fold
  TPST1 Fold Change: BL/6: 6.7 fold
  TREX1 Fold Change: BL/6: 10.2 fold
  TRIM21 Fold Change: BL/6: 8.4 fold
  TRIM25 Fold Change: BL/6: 4.2 fold
  TRIM34 Fold Change: BL/6: 3.3 fold
  USP18 Fold Change: BL/6: 11.6 fold
  VCAM1 Fold Change: BL/6: 3.4 fold
  ZBP1 Fold Change: BL/6: 15.4 fold
  ZNF313 Fold Change: BL/6: 3.2 fold
Of the 136 genes, 3-fold difference wild-type vs IFN-β−/−
  number of modulated genes that are IFN-β-dependent: 77 genes
Of ˜14,000 genes analyzed, 3 h, vs medium-treated cells
  number of genes with ≧3-fold change in expression: 136 genes
[2]
  2310043N10RIK WT/KO: 3.2
  5830484A20RIK WT/KO: 1.4
  ABCB1 WT/KO: 1.1
  ABL1 WT/KO: 5.6
  ABLIM1 WT/KO: 7.1
  ACVR1B WT/KO: 1.9
  ADRB2 WT/KO: 1.9
  AFTIPHILIN WT/KO: 3.0
  AKAP12 WT/KO: 2.2
  AMPD3 WT/KO: 1.5
  AP2A2 WT/KO: 1.1
  APBB1IP WT/KO: 2.2
  APOBEC3F WT/KO: 2.5
  ARHGEF3 WT/KO: 2.1
  ARID3A WT/KO: 1.6
  ARL4C WT/KO: 1.0
  ASF1A WT/KO: 1.8
  ATRX WT/KO: 1.6
  B3GAT3 WT/KO: 5.5
  BACE1 WT/KO: 3.2
  BAMBI WT/KO: 2.7
  BCL2L1 WT/KO: 6.0
  BCL2 WT/KO: 5.4
  BHLHB2 WT/KO: 3.0
  BID WT/KO: 1.1
  C8ORF4 WT/KO: 8.7
  C9ORF26 WT/KO: 2.1
  CCL2 WT/KO: 21.7
  CCL3 WT/KO: 4.1
  CCL4 WT/KO: 1.9
  CCL5 WT/KO: 1.4
  CCL7 WT/KO: 3.2
  CCL13 WT/KO: 2.9
  CCND2 WT/KO: 3.2
  CCNE1 WT/KO: 1.1
  CCNF WT/KO: 4.4
  CCRN4L WT/KO: 3.6
  CD37 WT/KO: 4.7
  CD40 WT/KO: 7.9
  CD86 WT/KO: 1.8
  CD274 WT/KO: 5.9
  CDC6 WT/KO: 1.2
  CDC7 WT/KO: 2.2
  CDC37L1 WT/KO: 1.7
  CDKN1A WT/KO: 2.7
  CEBPB WT/KO: 1.7
  CITED2 WT/KO: 4.6
  CLCA1 WT/KO: 2.5
  CNR2 WT/KO: 4.0
  CREBBP WT/KO: 0.7
  CXCL10 WT/KO: 3.3
  DAXX WT/KO: 4.9
  DSCR1 WT/KO: 1.3
  FGD6 WT/KO: 1.5
  FGL2 WT/KO: 2.9
  GBP2 WT/KO: 3.1
  GBP4 WT/KO: 1.6
  GBP6 WT/KO: 1.6
  GYPC WT/KO: 1.3
  IFI16 WT/KO: 1.6
  IFI35 WT/KO: 3.3
  IFI203 WT/KO: 6.4
  IFI205 WT/KO: 3.5
  IFIH1 WT/KO: 1.4
  IFIT1 WT/KO: 1.5
  IFIT2 WT/KO: 1.9
  IFIT3 WT/KO: 3.1
  IFNA5 WT/KO: 12.9
  IFNA6 WT/KO: 8.6
  IFNB1 WT/KO: 178.6
  IFNG WT/KO: 0.8
  IGTP WT/KO: 11.2
  IIGP1 WT/KO: 18.7
  IL6 WT/KO: 41.8
  IL12B WT/KO: 3.2
  IL15RA WT/KO: 4.5
  IL15 WT/KO: 4.3
  IRF1 WT/KO: 5.9
  IRF2 WT/KO: 3.5
  IRGM WT/KO: 2.9
  ISG20 WT/KO: 6.1
  KATNA1 WT/KO: 2.1
  LGP2 WT/KO: 2.4
  LHX2 WT/KO: 11.9
  LOC129607 WT/KO: 7.6
  MAFK WT/KO: 3.0
  MARCH5 WT/KO: 2.5
  MOV10 WT/KO: 3.4
  MX1 WT/KO: 20.7
  MX2 WT/KO: 74.3
  NMI WT/KO: 2.9
  NP WT/KO: 2.5
  NT5C3 WT/KO: 3.6
  OAS1B WT/KO: 6.2
  OASL WT/KO: 1.8
  P4HA1 WT/KO: 1.2
  P8 WT/KO: 2.9
  PARP9 WT/KO: 2.8
  PELI1 WT/KO: 1.4
  PGF WT/KO: 1.3
  PLAU WT/KO: 1.7
  PPP1R15A WT/KO: 3.4
  PTX3 WT/KO: 4.0
  PVRL2 WT/KO: 2.1
  PVRL4 WT/KO: 2.1
  REL WT/KO: 2.8
  RGC32 WT/KO: 2.9
  RIPK2 WT/KO: 2.5
  RSAD2 WT/KO: 2.0
  SAP30 WT/KO: 2.4
  SAV1 WT/KO: 1.2
  SDC4 WT/KO: 1.2
  SECTM1 WT/KO: 15.0
  SLC7A2 WT/KO: 2.0
  SOAT1 WT/KO: 1.8
  SOCS1 WT/KO: 16.7
  STAT2 WT/KO: 2.3
  TGTP WT/KO: 38.6
  TLK2 WT/KO: 3.0
  TLR3 WT/KO: 6.8
  TMOD3 WT/KO: 1.5
  TNF WT/KO: 5.0
  TNFRSF11B WT/KO: 0.9
  TNFSF9 WT/KO: 3.0
  TOR1AIP1 WT/KO: 2.4
  TPST1 WT/KO: 1.1
  TREX1 WT/KO: 2.0
  TRIM21 WT/KO: 3.2
  TRIM25 WT/KO: 1.8
  TRIM34 WT/KO: 1.7
  USP18 WT/KO: 11.4
  VCAM1 WT/KO: 2.1
  ZBP1 WT/KO: 3.7
  ZNF313 WT/KO: 2.1
